Data reported in patent publication US9474744B2, “Beta-lactam compounds for treating diabetes” (STEM CELL MEDICINE LTD., priority 2011, dated 2016).

How the values were obtained:
[1] = tested on: encephalitogenic BP10 line; assay: Adoptive EAE: BP10 T-cell line stimulated in vitro with test substance, then injected into naive rats; assay type: in vivo, rat
Method: Antigen-specific T-cell lines were established from lymph node cells that had been stimulated with myelin basic protein (MBP; 10 μg/ml) for 3 days in stimulation medium as described below. Following stimulation, the T-cell blasts were isolated on LYMPHOPREP™ (Nycomed Pharma, Oslo, Norway) and seeded in propagation medium. Propagation medium was identical to stimulation medium without autologous serum, but supplemented with fetal calf serum 10% and T-cell growth factors from the supernatant of Con A stimulated spleen cells 10% (Mor et al. (1990) J Clin Invest, 85, 1594-1598). Animals were injected intra-peritoneally with 107 MBP-stimulated T cells, following 6-8 cycles of in vitro stimulations. It is known that MBP-reactive lines undergo a reduction in pathogenicity after 6 or more in vitro stimulations. In some experiments the BP10 line was stimulated with phorbol myristate acetate (PMA; 50 ng/ml) and ionomycin (500 ng/ml) for 3 days in stimulation medium, without antigen-presenting cells.
Active EAE was induced by subcutaneous injection of 25 μg guinea-pig MBP (GpMBP) in complete Freund's adjuvant (CFA). […] Adoptive EAE was transferred by intra-peritoneal injection of guinea-pig MBP-activated cells of the BP10 line as described in Mor et al. (1993) J Clin Invest, 92, 2199-2206. […] Clinical scoring was: +1, paralysis of tail; +1.5, paresis of posterior paws and ataxia; +2, paraplegia; +3, paralysis extending to thoracic spine; +4, a moribund state.
Treatment with cefuroxime in vivo could affect many different host agents involved in EAE or AA as well as influencing the rats' bacterial flora. To test whether the antibiotic might directly modify the behavior of effector T cells, an encephalitogenic T-cell line was stimulated in the presence or absence of cefuroxime in vitro. The weakly encephalitogenic BP10 line was used, and was stimulated for 3 days with MBP in the presence or absence of cefuroxime (50 μg/ml). The activated T cells were then washed to remove the antibiotic, the T cells were injected intra-peritoneally into naïve recipient rats (10^7 per rat), and EAE was scored. The BP10 line at later stimulations was used, when its pathogenic potential is reduced, allowing to detect both suppression and enhancement of disease. […] To rule out antigen presenting cells (APC) as the target of the beta-lactam antibiotic, the encephalitogenic BP10 line was stimulated without APC using PMA (50 ng/ml) and Ionomycin (500 ng/ml) in the presence or absence of cefuroxime.
Additional beta-lactam antibiotics were tested for their effect on the adoptive transfer of EAE.
A control group was injected with the untreated line.

NOD mice = assay: Development of autoimmune diabetes in NOD mice; assay type: in vivo, mouse; conditions: at 5.7 months; s.c. at weekly intervals, ampicillin 1300 μg or ceftriaxone 675 μg per mouse; blood sugar above 300 mg/dl on 2 measurements; control 60%
Source text: Inbred female Lewis rats and NOD (non-obese diabetic) mice were supplied by the animal breeding center of the Weizmann Institute of Science, Israel, under the supervision of Harlan Laboratories and were used at 2-3 months of age. Experiments were approved by the Institutional Animal Care and Use Committee. Human peripheral blood lymphocytes from healthy donors were obtained from the blood bank of Sheba Medical Center, Tel Hashomer, Israel.
NOD mice spontaneously develop diabetes mellitus similar to type I diabetes in humans. […] The mice were followed for the development of diabetes, marked by blood sugar above 300 mg/dl on 2 measurements.

[2] = target: T1, 67 kDa protein of human CD4 and CD8 T cells (identified as albumin) (Homo sapiens, UniProt P02768); assay: Radioactive penicillin binding assay; conditions: 10 and 20 μCi tritium-labeled, 3 days with PMA and Ionomycin; SDS-PAGE autoradiography
T1 construct: endogenous in cells; host or cells: primary human peripheral-blood T cells (CD3+, CD4+ or CD8+) from healthy donors
Source text: Tritium labeled benzylpenicillin was obtained from Amersham (Buckinghamshire, UK; 250 μCi, 1 mCi/ml). Human CD4 or CD8 T cells were stimulated in 24 well plates, 5×10^6 cells per ml, with PMA and Ionomycin for 72 hr in the presence of 10 or 20 μCi of labeled penicillin. Following stimulation, the cells were collected, lysed and separated by SDS PAGE. The gels were fixed, treated with 1M sodium salicylate, and dried. The dried gels were exposed to x-ray film (BioMax MS film) for 14 days, with intensifying screen (BioMax TranScreen, Eastman Kodak Co., New Haven Conn., USA), and were developed.
To test whether beta-lactam antibiotics might affect T-cell behavior likewise by covalently binding a key T-cell protein, purified CD4 or CD8 human T cells were incubated with 10 and 20 μCi of tritium-labeled lactam benzylpenicillin (Amersham, Buckinghamshire, UK) for 3 days during stimulation with PMA and Ionomycin. The stimulated T cells were collected, washed, lysed and their proteins were subjected to SDS-PAGE separation. Dried gels were exposed in intensifying screens to Xray film for 2 weeks at −80° C. […] The intensity of the band was stronger at the 20 μCi concentration of penicillin.

[3] = target: T2, albumin of human CD3 T cells (Homo sapiens, UniProt P02768); assay: Western blot with Pen 9 antibody of antibiotic-treated human T cells; assay type: cell-based; conditions: T cells activated by mitogen in presence of antibiotic
T2 construct: endogenous in cells; host or cells: primary human peripheral-blood T cells (CD3+, CD4+ or CD8+) from healthy donors
Method: Rat tissues were ground with a tissue grinder in lysis buffer. The homogenate was centrifuged 14000 g for 15 min in 4° C. and the supernatant was used for western blotting. The protein concentration was determined using the BIO-RAD DC™ protein assay (Bio-Rad laboratories, Hercules, Calif.). Following electrophoresis in SDS gel in a mini-gel apparatus (Bio-Rad), the gels were electro-transferred to nitrocellulose membranes (Schleicher and schuell, Dassel, Germany). The nitrocellulose membranes were washed with distilled water for 5 min, and then blocked for 60 min. using a blocking solution composed of 2% bovine serum albumin (Fraction V, Sigma, St. Louis Mo.), 2.5% milk powder (Bio-Rad), Tris (Sigma) pH 7.5 10 mM, NaCl 150 mM and 0.02% thimerosal (Sigma). After 3×10 min. washes in PBS/TWEEN® 20 (PBS/T; 0.02%, Sigma), primary antibodies (1/1000) were incubated with the membranes in PBS/TWEEN® for 60 min. Following another series of washes in PBS/T (3×10 min), the membranes were incubated with a secondary antibody (Peroxidase conjugated anti rabbit or anti mouse, IgG Jackson ImmunoResearch, West Grove, Calif.) at a 1/2500 dilution in 2% milk in PBS solution for 60 min. After another 3×10 min washes, the membranes were incubated with the ECL reagent (for 60 seconds) and exposed to X-ray film.

albumin = target: T3, albumin (Rattus norvegicus, UniProt P02770); assay: Pen 9 western blot of rat tissue lysates after intraperitoneal penicillin G; assay type: in vivo; conditions: Lewis rats, 50 mg/rat intraperitoneally, 2 hours later
T3 construct: Rat tissues were ground with a tissue grinder in lysis buffer; from tissue; host or cells: various tissue lysates and serum of Lewis rats, 2 hours after i.p. penicillin G
Method: Rat tissues were ground with a tissue grinder in lysis buffer. The homogenate was centrifuged 14000 g for 15 min in 4° C. and the supernatant was used for western blotting. The protein concentration was determined using the BIO-RAD DC™ protein assay (Bio-Rad laboratories, Hercules, Calif.). Following electrophoresis in SDS gel in a mini-gel apparatus (Bio-Rad), the gels were electro-transferred to nitrocellulose membranes (Schleicher and schuell, Dassel, Germany). The nitrocellulose membranes were washed with distilled water for 5 min, and then blocked for 60 min. using a blocking solution composed of 2% bovine serum albumin (Fraction V, Sigma, St. Louis Mo.), 2.5% milk powder (Bio-Rad), Tris (Sigma) pH 7.5 10 mM, NaCl 150 mM and 0.02% thimerosal (Sigma). After 3×10 min. washes in PBS/TWEEN® 20 (PBS/T; 0.02%, Sigma), primary antibodies (1/1000) were incubated with the membranes in PBS/TWEEN® for 60 min. Following another series of washes in PBS/T (3×10 min), the membranes were incubated with a secondary antibody (Peroxidase conjugated anti rabbit or anti mouse, IgG Jackson ImmunoResearch, West Grove, Calif.) at a 1/2500 dilution in 2% milk in PBS solution for 60 min. After another 3×10 min washes, the membranes were incubated with the ECL reagent (for 60 seconds) and exposed to X-ray film. […]

[4] = free penicillin; cited from earlier work

T2 sequence (P02768 25-609): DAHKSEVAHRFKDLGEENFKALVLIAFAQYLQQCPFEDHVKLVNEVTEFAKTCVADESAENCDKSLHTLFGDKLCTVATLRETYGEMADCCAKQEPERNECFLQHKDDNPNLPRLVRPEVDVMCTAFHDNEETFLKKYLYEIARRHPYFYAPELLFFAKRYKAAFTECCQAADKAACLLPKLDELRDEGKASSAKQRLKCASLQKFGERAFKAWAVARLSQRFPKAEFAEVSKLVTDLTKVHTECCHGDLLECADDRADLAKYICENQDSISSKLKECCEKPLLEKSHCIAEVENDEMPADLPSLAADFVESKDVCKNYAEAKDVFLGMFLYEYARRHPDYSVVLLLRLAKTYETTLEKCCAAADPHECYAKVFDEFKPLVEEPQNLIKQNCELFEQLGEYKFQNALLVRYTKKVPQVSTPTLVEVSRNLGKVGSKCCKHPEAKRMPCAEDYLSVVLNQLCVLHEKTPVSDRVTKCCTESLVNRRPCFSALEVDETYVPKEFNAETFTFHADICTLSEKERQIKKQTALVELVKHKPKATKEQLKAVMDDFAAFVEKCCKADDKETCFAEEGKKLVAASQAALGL
T1 sequence (P02768 25-609): as above

## CO/N=C(\C(=O)N[C@@H]1C(=O)N2C(C(=O)O)=C(CSc3nc(=O)c(=O)[nH]n3C)CS[C@H]12)c1csc(N)n1 [ceftriaxone]
[1]; BP10 line stimulated 3 days with MBP in presence of 50 μg/ml antibiotic, 10^7 cells per rat
  severity of adoptive EAE in recipient rats: enhanced EAE severity
NOD mice
  incidence of diabetes: 60%

## CC1(C)S[C@@H]2[C@H](NC(=O)Cc3ccccc3)C(=O)N2[C@H]1C(=O)O [penicillin, benzylpenicillin]
[2]
  radioactive penicillin-protein band in T-cell lysates: single major penicillin-protein radioactive band was detected at 67 kD
[3]
  Pen 9 reactivity with lysates of antibiotic-treated T cells: reacted specifically to a major protein of the penicillin-treated T cells
albumin
  67 kD band representing penicilloylated albumin in tissue lysates: appears in all tissues examined and is most abundant in serum
[4]
  half-life: 42 min

B1: Penicillin-modified rat albumin: rat albumin modified with penicillin (conjugate, UniProt P02770 25-608, looked up)
Albumin: EAHKSEIAHRFKDLGEQHFKGLVLIAFSQYLQKCPYEEHIKLVQEVTDFAKTCVADENAENCDKSIHTLFGDKLCAIPKLRDNYGELADCCAKQEPERNECFLQHKDDNPNLPPFQRPEAEAMCTSFQENPTSFLGHYLHEVARRHPYFYAPELLYYAEKYNEVLTQCCTESDKAACLTPKLDAVKEKALVAAVRQRMKCSSMQRFGERAFKAWAVARMSQRFPNAEFAEITKLATDVTKINKECCHGDLLECADDRAELAKYMCENQATISSKLQACCDKPVLQKSQCLAEIEHDNIPADLPSIAADFVEDKEVCKNYAEAKDVFLGTFLYEYSRRHPDYSVSLLLRLAKKYEATLEKCCAEGDPPACYGTVLAEFQPLVEEPKNLVKTNCELYEKLGEYGFQNAVLVRYTQKAPQVSTPTLVEAARNLGRVGTKCCTLPEAQRLPCVEDYLSAILNRLCVLHEKTPVSEKVTKCCSGSLVERRPCFSALTVDETYVPKEFKAETFTFHSDICTLPDKEKQIKKQTALAELVKHKPKATEDQLKTVMGDFAQFVDKCCKAADKDNCFATEGPNLVARSKEALA
modifications: penicillin-modified
[1]; BP10 line stimulated 3 days with 5 mg/ml in stimulation medium, control untreated line
  severity of adoptive EAE mediated by the BP10 line: could also enhance the encephalogenicity of the BP10 line
